What is called IC50 is the concentration that gives 50% inhibition. A word on the Ki: it is a dissociation constant, usually derived from enzyme kinetics or from competition with a known ligand. Higher therefore signals a looser hold on the target.

One experiment deals with Relaxin-3 receptor 2 (Homo sapiens, UniProt Q8TDU9). Nature of the experiment: Agonist activity at RXFP4 expressed in CHO-K1 cells assessed as inhibition of forskolin-induced cAMP accumulation after 6 hrs by beta galactosidase reporter gene assay. In kind it is functional, cell-based. (In general: Changes in cAMP serve as a functional read-out for many G protein-coupled receptors.)
Chain of Relaxin-3 receptor 2 (Q8TDU9 whole entry): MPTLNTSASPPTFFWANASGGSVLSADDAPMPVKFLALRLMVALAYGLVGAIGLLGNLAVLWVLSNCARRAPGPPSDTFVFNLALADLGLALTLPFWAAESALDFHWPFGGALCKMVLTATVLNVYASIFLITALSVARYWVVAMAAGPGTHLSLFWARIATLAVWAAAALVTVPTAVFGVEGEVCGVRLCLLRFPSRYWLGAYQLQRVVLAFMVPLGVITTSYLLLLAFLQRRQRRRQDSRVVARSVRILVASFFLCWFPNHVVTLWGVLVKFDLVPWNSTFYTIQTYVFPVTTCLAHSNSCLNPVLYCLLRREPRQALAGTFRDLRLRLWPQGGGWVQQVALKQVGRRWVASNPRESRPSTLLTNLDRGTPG

The target in experiment [1] is T1, Relaxin-3 receptor 1 (Homo sapiens, UniProt Q9NSD7).
T1 sequence (Q9NSD7 whole entry): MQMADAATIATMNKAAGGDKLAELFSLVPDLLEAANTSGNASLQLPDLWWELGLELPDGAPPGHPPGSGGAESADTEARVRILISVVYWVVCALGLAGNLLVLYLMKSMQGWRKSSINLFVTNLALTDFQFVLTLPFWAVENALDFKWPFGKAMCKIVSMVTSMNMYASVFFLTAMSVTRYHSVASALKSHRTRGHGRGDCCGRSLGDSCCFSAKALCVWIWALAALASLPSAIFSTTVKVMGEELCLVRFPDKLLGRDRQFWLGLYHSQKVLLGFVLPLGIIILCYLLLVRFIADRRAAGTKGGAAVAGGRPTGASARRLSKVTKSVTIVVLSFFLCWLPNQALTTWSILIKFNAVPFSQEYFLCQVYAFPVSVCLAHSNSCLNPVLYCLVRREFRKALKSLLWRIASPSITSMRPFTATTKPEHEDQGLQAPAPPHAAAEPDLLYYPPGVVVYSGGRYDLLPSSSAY
As to the kind of experiment: Agonist activity at RXFP3 expressed in CHO-K1 cells assessed as inhibition of forskolin-induced cAMP accumulation after 6 hrs by beta galactosidase reporter gene assay. Type of experiment: functional, cell-based.

Experiment [2] has as its target T1, Relaxin-3 receptor 1. Nature of the experiment: Displacement of europium-labelled H3 relaxin-B chain/INSL-5 chain from RXFP3 expressed in CHO-K1 cells. Type of experiment: cell-based.
A further experiment addresses T2, Relaxin receptor 1 (Homo sapiens, UniProt Q9HBX9).
T2 sequence (Q9HBX9 whole entry): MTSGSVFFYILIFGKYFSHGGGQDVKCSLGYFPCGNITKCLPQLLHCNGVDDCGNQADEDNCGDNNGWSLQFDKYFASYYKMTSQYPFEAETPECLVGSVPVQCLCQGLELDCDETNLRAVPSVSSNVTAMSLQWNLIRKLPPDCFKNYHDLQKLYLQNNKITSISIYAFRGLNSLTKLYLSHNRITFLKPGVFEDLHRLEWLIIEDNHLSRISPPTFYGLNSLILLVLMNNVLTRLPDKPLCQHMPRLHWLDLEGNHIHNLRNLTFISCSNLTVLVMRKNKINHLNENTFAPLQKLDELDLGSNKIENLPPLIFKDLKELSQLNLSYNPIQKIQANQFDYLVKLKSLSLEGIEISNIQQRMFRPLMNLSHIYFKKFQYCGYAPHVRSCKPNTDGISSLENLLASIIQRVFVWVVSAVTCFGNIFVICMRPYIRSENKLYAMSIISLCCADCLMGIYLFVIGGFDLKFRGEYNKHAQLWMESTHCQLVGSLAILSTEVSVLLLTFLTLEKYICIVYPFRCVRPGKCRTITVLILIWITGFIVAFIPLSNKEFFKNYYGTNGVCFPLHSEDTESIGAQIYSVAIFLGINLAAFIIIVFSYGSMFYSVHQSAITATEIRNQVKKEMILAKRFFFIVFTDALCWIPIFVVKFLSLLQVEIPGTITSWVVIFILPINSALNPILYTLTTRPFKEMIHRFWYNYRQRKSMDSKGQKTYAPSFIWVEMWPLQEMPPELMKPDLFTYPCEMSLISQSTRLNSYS
Nature of the experiment: Displacement of europium-labelled H2 relaxin from RXFP1 expressed in HEK-293T cells. In kind it is cell-based.

As to `CC[C@H](C)[C@@H]1NC(=O)[C@H](Cc2ccccc2)NC(=O)[C@H](CCC(=O)O)NC(=O)[C@H](CCCN=C(N)N)NC(=O)CNC(=O)[C@@H](NC(=O)[C@H](CC(C)C)NC(=O)[C@@H](N)CCCN=C(N)N)CSSC[C@H](N)C(=O)N[C@@H](CCCCN)C(=O)N[C@@H](Cc2c[nH]c3ccccc23)C(=O)NCC(=O)N[C@@H](C)C(=O)N[C@@H](CO)C(=O)N[C@@H](CCCCN)C(=O)N[C@@H](CO)C(=O)N[C@@H](CCC(=O)O)C(=O)N[C@@H]([C@@H](C)CC)C(=O)N[C@@H](CO)C(=O)N[C@@H](CO)C(=O)N[C@@H](CC(C)C)C(=O)N[C@H](C(=O)O)CSSC[C@@H](C(=O)NCC(=O)NCC(=O)N[C@@H](CO)C(=O)N[C@@H](CCCN=C(N)N)C(=O)N[C@@H](Cc2c[nH]c3ccccc23)C(=O)O)NC(=O)[C@H]([C@@H](C)O)NC(=O)[C@H](Cc2ccccc2)NC(=O)[C@H]([C@@H](C)CC)NC(=O)[C@H](C(C)C)NC(=O)[C@H](C)NC(=O)[C@H](CCCN=C(N)N)NC1=O`, the results for the IC50 on Relaxin-3 receptor 2 and at Relaxin-3 receptor 1 [1] were 7.94 nM and 5.13 nM, respectively. The Ki was 112 nM at Relaxin-3 receptor 1 [2] and above 10000 nM at Relaxin receptor 1.

Values taken from ChEMBL document CHEMBL2029320 (J Med Chem, 2012).
